From EP4810052A2, “HCRHR2 SELECTIVE POLYPEPTIDES” (Gubra A/S, priority 2023, dated 2026)
Like-named read-outs stand apart in the source and are kept apart here. Starred links: 1 amine or outer side, 2 acyl side, 3 side chain; linkers in the order of their positions; H or OH if unused. Non-standard residues stand in square brackets, D forms with d. Residues, ends and D or L forms follow the SMILES beside them. Groups on a side chain read outwards from the residue. *: point of attachment. C20 diacid = O=C(O)CCCCCCCCCCCCCCCCCCC(=O)*; γGlu = O=C(O)[C@H](CCC(=O)[*:2])N[*:1]; NMeI = CC[C@H](C)[C@H](NC)C(=O)O; Nle = CCCC[C@H](N)C(=O)O; AEEA = NCCOCCOCC(=O)O; Aib = CC(C)(N)C(=O)O

Assays:
[1] = biological target: T1, hCRHR2 (Homo sapiens, UniProt Q13324); experiment: HTRF cAMP assay, determination of hCRHR2 potency (peptide libraries 5 conc., purified peptides 11 conc.); type: cell-based; details: for EC50: read-out: hCRHR2 EC50
T1 sequence (Q13324 1-411): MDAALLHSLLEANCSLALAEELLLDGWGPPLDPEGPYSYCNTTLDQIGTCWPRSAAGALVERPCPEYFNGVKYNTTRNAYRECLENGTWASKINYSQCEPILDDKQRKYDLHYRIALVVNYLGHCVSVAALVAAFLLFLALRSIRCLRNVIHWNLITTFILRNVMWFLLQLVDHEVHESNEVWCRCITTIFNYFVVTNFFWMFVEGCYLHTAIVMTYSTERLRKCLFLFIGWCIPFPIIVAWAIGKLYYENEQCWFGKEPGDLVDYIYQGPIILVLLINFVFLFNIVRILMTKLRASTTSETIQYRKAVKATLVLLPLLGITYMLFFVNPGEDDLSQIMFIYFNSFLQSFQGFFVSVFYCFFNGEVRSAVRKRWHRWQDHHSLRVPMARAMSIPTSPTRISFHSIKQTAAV
Outline: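 Potency was read as cAMP accumulation in a stable CHO-K1 line expressing human CRHR2, used in suspension right after thawing. Detection relied on energy transfer from antibody-bound cryptate to d2-cAMP.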

[2] = biological target: T2, hCRHR1 (Homo sapiens, UniProt P34998); experiment: HTRF cAMP assay, determination of hCRHR1 potency (peptide libraries 5 conc., purified peptides 11 conc.); type: cell-based; details: read-out: hCRHR1 EC50
T2 sequence (P34998 24-415): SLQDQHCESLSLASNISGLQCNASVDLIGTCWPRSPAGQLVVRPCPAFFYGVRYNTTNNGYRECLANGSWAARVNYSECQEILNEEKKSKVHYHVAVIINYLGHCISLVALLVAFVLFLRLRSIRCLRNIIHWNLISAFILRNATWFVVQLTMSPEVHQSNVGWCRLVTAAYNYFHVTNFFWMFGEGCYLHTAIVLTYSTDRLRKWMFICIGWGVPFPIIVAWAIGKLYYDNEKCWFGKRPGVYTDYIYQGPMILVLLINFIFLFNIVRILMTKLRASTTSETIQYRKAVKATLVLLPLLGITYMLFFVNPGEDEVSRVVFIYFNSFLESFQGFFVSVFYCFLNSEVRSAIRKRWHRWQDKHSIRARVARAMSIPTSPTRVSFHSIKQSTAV
Outline: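 CHO-K1 cells stably expressing human CRHR1, thawed from frozen stocks just before use, were stimulated in suspension with agonist peptides. cAMP was measured by HTRF competitive immunoassay (cryptate anti-cAMP antibody vs d2-cAMP).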

[3] = Thioflavin T fibril formation assay of purified peptides; type: physicochemical; set-up: key: Amyloid fibril formation detected by an increase in ThT fluorescence was denoted with "Yes"; samples without increasing ThT fluorescence hence not forming amyloid fibrils were denoted "No"
Protocol: Thioflavin T fibril formation assay: Peptides were dissolved as 267 µM in 50 mM phosphate buffer pH 7.5 for 2 h at room temperature on a rocking table. The samples were then divided into three replicates of 80 µl/well and mixed with 2 µl/well Thioflavin T (ThT)to a final concentration of 4 µM ThT in a black 384 well microplate with a clear bottom (Greiner #781096). The plate was inserted in a CLARIOstar Plus microplate reader (BMG Labtech) and fibril formation was measured as an increase in fluorescence emission at 480 nm (excitation at 450 nm) during 96 h at 40°C with cycles of 5 min rest and 5 min linearshaking at700 rpm.
Compounds were dissolved to 200 µM (ca 1.0 mg/ml) in 50 mM phosphate buffer with preparation and ThT assay performed as described in the "General procedure for determination of fibril formation of peptides." above. Furthermore, samples were adjusted to pH values as indicated below. Additional co-formulations of compounds with semaglutide were prepared by dissolving compounds to 200 µM in commercially available semaglutide drug product (Ozempic®); these co-formulations were adjusted to pH 7.4.

[4] = Chemical stability of purified peptides (RP-UHPLC main peak purity loss); type: physicochemical
Protocol: Chemical stability was tested at a concentration of approximately of 1.0 mg/ml peptide in the following vehicles: 50 mM phosphate buffer pH 7.5. Dissolved samples were incubated for at least 2 h at room temperature on a rocking table. The main peak purity at time zero (T0) was determined using reversed phase chromatography. The samples were incubated at 40°C for 14 days (T14) and 28 days (T28). The samples were analyzed with reversed phase chromatography and size exclusion chromatography.
Reversed Phase chromatography was performed on a Thermo Dionex Ultimate UHPLC system with UV detection at 215 nm) and equipped with a Kinetex column (1.7 µm, C8, 100 Å, 150 x 2.1 mm (00F-4499-AN)). Analysis was performed by gradient elution with buffer A (0.1% TFA in 95:5 H2O:acetonitrile) and buffer B (0.1% TFA in 5:95 H2O: acetonitrile) at a column temperature of 50 °C (gradient used 25-55%B over 40 min. Flowrate was 0.5 mL/min. The main peak purity was determined from the integrated chromatogram as the area under the main peak relative to the total peak area. The purity loss was calculated as the difference between the T0 and T14 time point and/or as the difference between the T0 and T28 time point.
The chemical stability of selected peptides was evaluated at varying pH's at 40° C over 28 days. Samples were prepared and analysed as described in procedure with the addition of pH adjusting samples to the targets indicated below. As a comparator,r commercially available semaglutide drug product (Ozempic®, Novo Nordisk) was included in the sample set.

[5] = pH 7.5
[6] = purified peptides, CHO-K1 cells stably expressing hCRHR2, cAMP HTRF
[7] = purified peptides, CHO-K1 cells stably expressing hCRHR1, cAMP HTRF
[8] = pH 7.5, 40°C, 14 days, first value of cell

Selectivity ratio (hCRHR1/ hCRHR2) ([1]; Table 5)	EC50 ([1]; Table 5, purified peptides)	EC50 ([2]; Table 5, purified peptides)	Fibrillation (pH 7.5) ([3]; pH 7.5)	Chemical stability at pH 7.5 after 14 days at 40°C (% degradation) ([4]; pH 7.5, 14 days, 40°C)	Chemical stability at pH 7.5 after 28 days at 40°C (% degradation) ([4]; pH 7.5, 28 days, 40°C)	Solubility pH 7.5, target conc. =10 mg/mL (measured mg/mL) [5]	Selectivity ratio (hCRHR1/ hCRHR2) ([1]; hCRHR1-EC50/hCRHR2-EC50)	EC50 [1, 6]	EC50 [2, 7]	Fibrillation (pH 7.5) ([3]; pH 7.5, ThT assay)	Chemical stability at pH 7.5 after 14 days at 40°C (% degradation) [4, 8]	Compound
>6494	0.77 nM	> 5000 nM	No	-0.43%	-0.8%	11 mg/mL						CCCC[C@H](NC(=O)[C@@H](NC(=O)[C@H](CCC(=O)O)NC(=O)C(C)(C)NC(=O)[C@H](CC(N)=O)NC(=O)[C@@H](NC(=O)[C@H](CCCCNC(=O)COCCOCCNC(=O)COCCOCCNC(=O)CC[C@H](NC(=O)CC[C@H](NC(=O)CCCCCCCCCCCCCCCCCCC(=O)O)C(=O)O)C(=O)O)NC(=O)[C@H](C)NC(=O)[C@H](CCC(N)=O)NC(=O)[C@H](CCC(=O)O)NC(=O)[C@H](CCCNC(=N)N)NC(=O)[C@H](C)NC(=O)[C@H](C)NC(=O)[C@H](CCCNC(=N)N)NC(=O)[C@H](C)NC(=O)[C@H](CCCNC(=N)N)NC(=O)[C@H](C)NC(=O)[C@H](CCC(N)=O)NC(=O)[C@H](CCC(=O)O)NC(=O)[C@H](CC(C)C)NC(=O)[C@H](CC(C)C)NC(=O)[C@@H](NC(=O)[C@H](CCC(N)=O)NC(=O)[C@H](CC(C)C)NC(=O)[C@H](CC(C)C)NC(=O)CNC(=O)[C@@H](NC(=O)[C@@H]1CCCN1C(=O)[C@@H](NC(=O)[C@H](CC(=O)O)NC(=O)[C@H](CC(C)C)NC(=O)[C@H](CO)NC(=O)[C@H](CC(C)C)NC(=O)[C@@H](NC(=O)[C@@H](N)[C@@H](C)CC)C(C)C)C(C)C)[C@@H](C)CC)[C@@H](C)CC)[C@@H](C)O)[C@@H](C)CC)C(=O)N[C@@H](C)C(=O)N[C@@H](CCC(=O)O)C(=O)N[C@H](C(N)=O)[C@@H](C)CC [compound 100] (H-IVLSLDVPIGLLQILLEQARARAAREQAK([AEEA-AEEA-γGlu-γGlu-C20 diacid])TN[Aib]EI[Nle]AEI-NH2)
						10 mg/mL	>4167	1.2 nM	> 5000 nM	No	-1.4 / ND %	CC[C@H](C)[C@H](NC)C(=O)N[C@H](C(=O)N[C@@H](CC(C)C)C(=O)N[C@@H](CO)C(=O)N[C@@H](CC(C)C)C(=O)N[C@@H](CC(=O)O)C(=O)N[C@H](C(=O)N1CCC[C@H]1C(=O)N[C@H](C(=O)NCC(=O)N[C@@H](CC(C)C)C(=O)N[C@@H](CC(C)C)C(=O)N[C@@H](CCC(N)=O)C(=O)N[C@H](C(=O)N[C@@H](CC(C)C)C(=O)N[C@@H](CC(C)C)C(=O)N[C@@H](CCC(=O)O)C(=O)N[C@@H](CCC(N)=O)C(=O)N[C@@H](C)C(=O)N[C@@H](CCCNC(=N)N)C(=O)N[C@@H](C)C(=O)N[C@@H](CCCNC(=N)N)C(=O)N[C@@H](C)C(=O)N[C@@H](C)C(=O)N[C@@H](CCCNC(=N)N)C(=O)N[C@@H](CCC(=O)O)C(=O)N[C@@H](CCC(N)=O)C(=O)N[C@@H](C)C(=O)N[C@@H](CCCCNC(=O)COCCOCCNC(=O)COCCOCCNC(=O)CC[C@H](NC(=O)CC[C@H](NC(=O)CCCCCCCCCCCCCCCCCCC(=O)O)C(=O)O)C(=O)O)C(=O)NC(C)(C)C(=O)N[C@@H](CC(N)=O)C(=O)N[C@@H](C)C(=O)N[C@@H](CCC(=O)O)C(=O)N[C@H](C(=O)N[C@@H](CC(C)C)C(=O)N[C@@H](C)C(=O)N[C@@H](CCC(=O)O)C(=O)N[C@H](C(N)=O)C(C)C)[C@@H](C)CC)[C@@H](C)CC)[C@@H](C)CC)C(C)C)C(C)C [SEQ ID NO: 20] (H-[NMeI]VLSLDVPIGLLQILLEQARARAAREQAK([AEEA-AEEA-γGlu-γGlu-C20 diacid])[Aib]NAEILAEV-NH2)
						11 mg/mL	>3571	1.4 nM	> 5000 nM	No	-2.2 / ND %	CC[C@H](C)[C@H](NC)C(=O)N[C@H](C(=O)N[C@@H](CC(C)C)C(=O)N[C@@H](CO)C(=O)N[C@@H](CC(C)C)C(=O)N[C@@H](CC(=O)O)C(=O)N[C@H](C(=O)N1CCC[C@H]1C(=O)N[C@H](C(=O)NCC(=O)N[C@@H](CC(C)C)C(=O)N[C@@H](CC(C)C)C(=O)N[C@@H](CCC(N)=O)C(=O)N[C@H](C(=O)N[C@@H](CC(C)C)C(=O)N[C@@H](CC(C)C)C(=O)N[C@@H](CCC(=O)O)C(=O)N[C@@H](CCC(N)=O)C(=O)N[C@@H](C)C(=O)N[C@@H](CCCNC(=N)N)C(=O)N[C@@H](C)C(=O)N[C@@H](CCCNC(=N)N)C(=O)N[C@@H](C)C(=O)N[C@@H](C)C(=O)N[C@@H](CCCNC(=N)N)C(=O)N[C@@H](CCC(=O)O)C(=O)N[C@@H](CCC(N)=O)C(=O)N[C@@H](C)C(=O)N[C@@H](CCCCNC(=O)COCCOCCNC(=O)COCCOCCNC(=O)CC[C@H](NC(=O)CC[C@H](NC(=O)CCCCCCCCCCCCCCCCCCC(=O)O)C(=O)O)C(=O)O)C(=O)N[C@@H](CCC(=O)O)C(=O)N[C@@H](CC(N)=O)C(=O)N[C@@H](C)C(=O)N[C@@H](CCC(=O)O)C(=O)N[C@H](C(=O)N[C@@H](CC(C)C)C(=O)N[C@@H](C)C(=O)N[C@@H](CCC(=O)O)C(=O)N[C@H](C(N)=O)C(C)C)[C@@H](C)CC)[C@@H](C)CC)[C@@H](C)CC)C(C)C)C(C)C [SEQ ID NO: 18] (H-[NMeI]VLSLDVPIGLLQILLEQARARAAREQAK([AEEA-AEEA-γGlu-γGlu-C20 diacid])ENAEILAEV-NH2)
